Laboratory results taken from ChEMBL document CHEMBL5661982 (Mol Cancer Ther, 2012).
Active and inactive are the calls of the source. The calls are words filed in the database; no cut-off is given here.

Legend:
[1] = system: MDA-MB-231; test: Antitumor activity against human MDA-MB-231 cells xenografted in athymic nu/nu mouse assessed as tumor growth inhibition at 40 mg/kg/day, po for 14 days relative to control; details: MDA-MB-231, po, 336 h, read-out: TGI
[2] = system: GTL 16 cell line; test: Antitumor activity against human GTL 16 cells xenografted in athymic nu/nu mouse assessed as tumor growth inhibition at 0.5 mg/kg, sc minipump administered for 14 days relative to control; details: GTL 16, 336 h, read-out: TGI
[3] = system: GTL 16 cell line; test: Antitumor activity against human GTL 16 cells xenografted in athymic nu/nu mouse assessed as tumor growth inhibition at 1.5 mg/kg, sc minipump administered for 14 days relative to control; details: GTL 16, 336 h, read-out: TGI
[4] = system: GTL 16 cell line; test: Antitumor activity against human GTL 16 cells xenografted in athymic nu/nu mouse assessed as tumor growth inhibition at 5 mg/kg, sc minipump administered for 14 days relative to control; details: GTL 16, 336 h, read-out: TGI
[5] = system: GTL 16 cell line; test: Antitumor activity against human GTL 16 cells xenografted in athymic nu/nu mouse assessed as tumor growth inhibition at 15 mg/kg, sc minipump administered for 14 days relative to control; details: GTL 16, 336 h, read-out: TGI
[6] = system: COLO 205; test: Antitumor activity against human COLO 205 cells xenografted in athymic nu/nu mouse assessed as tumor growth inhibition at 40 mg/kg/day, po for 18 days relative to control; details: COLO 205, po, 432 h, read-out: TGI
[7] = system: U-87 MG; test: Antitumor activity against human U-87 MG cells xenografted in athymic nu/nu mouse assessed as tumor growth inhibition at 0.3 mg/kg, po for 9 days relative to control; details: 216 h, read-out: TGI
[8] = system: U-87 MG; test: Antitumor activity against human U-87 MG cells xenografted in athymic nu/nu mouse assessed as tumor growth inhibition at 1 mg/kg, po for 9 days relative to control; details: 216 h, read-out: TGI
[9] = system: U-87 MG; test: Antitumor activity against human U-87 MG cells xenografted in athymic nu/nu mouse assessed as tumor growth inhibition at 3 mg/kg, po for 9 days relative to control; details: 216 h, read-out: TGI
[10] = system: U-87 MG; test: Antitumor activity against human U-87 MG cells xenografted in athymic nu/nu mouse assessed as tumor growth inhibition at 10 mg/kg, po for 9 days relative to control; details: 216 h, read-out: TGI
[11] = system: U-87 MG; test: Antitumor activity against human U-87 MG cells xenografted in athymic nu/nu mouse assessed as tumor growth inhibition at 30 mg/kg, po for 9 days relative to control; details: 216 h, read-out: TGI
[12] = system: SW-620; test: Antitumor activity against human SW620 cells xenografted in athymic nu/nu mouse assessed as tumor growth inhibition at 40 mg/kg/day, po for 25 days relative to control; details: SW-620, po, 600 h, read-out: TGI
[13] = system: HT-29; test: Antitumor activity against human HT-29 cells transfected with RON shRNA xenografted in athymic nu/nu mouse assessed as tumor growth inhibition at 50 mg/kg/day, po for 21 days relative to control; details: HT-29, po, 504 h, read-out: TGI
[14] = system: HT-29; test: Antitumor activity against human HT-29 cells xenografted in athymic nu/nu mouse assessed as tumor growth inhibition at 50 mg/kg/day, po for 21 days relative to control; details: HT-29, po, 504 h, read-out: TGI
[15] = system: GTL 16; details: Homo sapiens, dose 1-30 mg/kg, route po
[16] = system: GTL 16; details: Homo sapiens, dose 0.3-10 mg/kg, route po, time 4.0 day
[17] = system: GTL 16; details: Homo sapiens, dose 0.3-10 mg/kg, route po, time 4.0 day; remark: listed apart in the source
[18] = system: GTL 16; details: Homo sapiens, dose 0.3-10 mg/kg, route po, time 4.0 day; remark: listed apart in the source
[19] = system: GTL 16; details: Homo sapiens, dose 0.3-10 mg/kg, route po, time 4.0 day; remark: listed apart in the source
[20] = system: GTL 16; details: Homo sapiens, dose 0.3-10 mg/kg, route po, time 4.0 day; remark: listed apart in the source
[21] = system: GTL 16; details: Homo sapiens, dose 3-30 mg/kg, route po, time 4.0 day
[22] = system: U-87MG ATCC; details: Homo sapiens, dose 5-50 mg/kg, route po, time 3.0 day
[23] = system: U-87MG ATCC; details: Homo sapiens, dose 5-50 mg/kg, route po, time 3.0 day; remark: listed apart in the source
[24] = system: U-87MG ATCC; details: Homo sapiens, dose 5-50 mg/kg, route po, time 3.0 day; remark: listed apart in the source
[25] = system: U-87MG ATCC; details: Homo sapiens, dose 5-50 mg/kg, route po, time 3.0 day; remark: listed apart in the source
[26] = system: U-87 MG; details: Homo sapiens; U-87MG ATCC; dose 5-50 mg/kg, route po, time 3.0 day
[27] = system: U-87MG ATCC; details: Homo sapiens, dose 5-50 mg/kg, route po, time 3.0 day; remark: listed apart in the source
[28] = system: U-87MG ATCC; details: Homo sapiens, dose 5-50 mg/kg, route po, time 3.0 day; remark: listed apart in the source
[29] = system: U-87MG ATCC; details: Homo sapiens, dose 5-50 mg/kg, route po, time 3.0 day; remark: listed apart in the source
[30] = system: SW-620; details: Homo sapiens, dose 40.0 mg/kg/day, route po, time 25.0 day
[31] = system: HT-29; details: Homo sapiens, dose 50.0 mg/kg/day, route po, time 21.0 day
[32] = system: HT-29; details: Homo sapiens, dose 50.0 mg/kg/day, route po, time 21.0 day; remark: listed apart in the source
[33] = system: HT-29; details: Homo sapiens, dose 50.0 mg/kg/day, route po, time 21.0 day; remark: listed apart in the source
[34] = system: GTL 16 cell line; test: animal or person; details: Mus musculus, GTL 16, po, 384 h, read-out: TGI
Description: Antitumor activity against human GTL 16 cells xenografted in athymic nu/nu mouse assessed as tumor growth inhibition at 30 mg/kg, po administered for 16 days relative to control

OCCn1cc(-c2cnc3nnn(Cc4ccc5ncccc5c4)c3n2)cn1 [PF-04217903]
inhibition in vivo at 40 mg/kg/day [1]: 43% | inhibition in vivo at 0.5 mg/kg [2]: 46% | inhibition in vivo at 1.5 mg/kg [3]: 63% | inhibition in vivo at 5 mg/kg [4]: 75% | inhibition in vivo at 15 mg/kg [5]: 93% | inhibition in vivo at 40 mg/kg/day [6]: 44% | inhibition in vivo at 0.3 mg/kg [7]: 20% | inhibition in vivo at 1 mg/kg [8]: 30% | inhibition in vivo at 3 mg/kg [9]: 48% | inhibition in vivo at 10 mg/kg [10]: 68% | inhibition in vivo at 30 mg/kg [11]: 84% | inhibition in vivo at 40 mg/kg/day [12]: 45% | inhibition in vivo at 50 mg/kg/day [13]: 77% | inhibition in vivo at 50 mg/kg/day [14]: 40% | inhibition [15]: Active | inhibition [16]: Dose-Dependent Effect | inhibition [17]: Dose-Dependent Effect | inhibition [18]: Dose-Dependent Effect | inhibition [19]: Dose-Dependent Effect | inhibition [20]: Dose-Dependent Effect | inhibition [21]: Dose-Dependent Effect | inhibition [22]: Active | inhibition [23]: Active | inhibition [24]: Active | inhibition [25]: Active | inhibition [26]: Active | inhibition [27]: Active | inhibition [28]: inactive | inhibition [29]: inactive | inhibition [30]: Active | inhibition [31]: Active | inhibition [32]: inactive | inhibition [33]: Active | inhibition in vivo at 30 mg/kg [34]: 100%
